In brackets after ≈: the same amount, converted by molar mass. Where a name gives a salt, the structure may show the parent alone. Read-outs that look alike come from different tables or passages of the source.
Columns and labels:
[1] = acute toxicity (LD50) in mice; conditions: mouse, in vivo
Description: The LD50 value of D-glucaro-δ-lactam sodium salt in mice is not less than 3 g/kg by the intraveous injection and not less than 5 g/kg by the oral administration. The LD50 value of D-glucaro-δ-lactam methyl ester in mice is not less than 5 g/kg by the intraveous injection and not less than 10 g/kg by the oral administration. With respect to 6-O-triphenylmethyl-D-gluco-δ-lactam, the LD50 value is not less than 300 mg/kg in case of the subcutaneous administration in mice.

HIV = assay: in vitro anti-HIV activity: decrease in the cytocidal effect of HIV on MT-2 cells; type: cell-based; conditions: for EC50: Human immunodeficiency virus 1, MT2, 168 h, read-out: EC50 (concentration giving a 50% decrease in the cytocidal effect of HIV); for TI50 (IC50/EC50): ratio IC50/EC50, 10080 min
Description: (§1) Namely, the host human T-lymphotropic MT-2 cell line is transplanted on a microtiter plate and a series of dilutions of the test compounds shown in the table below are added with or without addition of HIV, followed by incubation for 7 days. For evaluation, the residual viable cell count is then determined by colorimetry.
(§2) In the above table, EC50 means the concentration of the test compound giving a 50% decrease in the cytocidal effect of HIV and IC50 means the concentration of the test compound giving a 50% inhibition of growth of normal non-infected cells.

[2] = inhibition of growth of normal non-infected cells (MT-2); type: cell-based, human; conditions: human; MT-2 cells without HIV, 7 days, viable cell count by colorimetry; read-out: IC50 (concentration giving a 50% inhibition of growth of normal non-infected cells)
Description: as §1, §2

AIDS patients = conditions: in words, cited from earlier work
[3] = test system: human T-lymphotropic MT-2 cell line; assay: inhibition of growth of normal non-infected cells (MT-2); type: cell-based; conditions: Homo sapiens, MT2, 168 h; MT-2 cells without HIV, 7 days, viable cell count by colorimetry; read-out: IC50 (concentration giving a 50% inhibition of growth of normal non-infected cells)
Description: as §1, §2

## O=C1N[C@H](COC(c2ccccc2)(c2ccccc2)c2ccccc2)[C@@H](O)[C@H](O)[C@H]1O [6-O-triphenylmethyl-D-gluco-δ-lactam]
[1]; sc, subcutaneous administration
  LD50: ≥ 300 mg/kg
HIV
  EC50: 0.0386 ng/mL (≈ 9.2e-05 µM)
  TI50 (IC50/EC50): 8.19 × 10^5
[2]
  CC50 at 168 h: 31.7 µg/mL (≈ 75.6 µM)

## O=C(O)[C@H]1NC(=O)[C@H](O)[C@@H](O)[C@@H]1O [D-glucaro-δ-lactam sodium salt]
[1]; intravenous injection
  LD50: ≥ 3000 mg/kg
[1]; oral administration
  LD50: ≥ 5000 mg/kg

## Cc1cn([C@H]2C[C@H](N=[N+]=[N-])[C@@H](CO)O2)c(=O)[nH]c1=O [azidothymidine (AZT), azidothymidine]
AIDS patients; listed as AZT
  side effects in clinical application: side effects of AZT on bone marrow
AIDS patients
  side effects in clinical application: serious side effects such as bone marrow depression, anemia and neurologic disorders such as headache and convulsion

## COC(=O)[C@H]1NC(=O)[C@H](O)[C@@H](O)[C@@H]1O [D-glucaro-δ-lactam methyl ester]
[1]; intravenous injection
  LD50: ≥ 5000 mg/kg
[1]; oral administration
  LD50: ≥ 10000 mg/kg

## O=C(O)[C@H]1NC(=O)[C@H](O)[C@@H](O)[C@@H]1O [D-glucaro-δ-lactam calcium salt]
HIV; MT-2 cells, with HIV, 7 days, viable cell count by colorimetry
  EC50: < 0.25 ng/mL
HIV
  TI50 (IC50/EC50): > 1.00 × 10^6
[3]
  IC50: > 250 µg/mL
